Data set [1] can be described thus: Jaundice observation and blood tests T-bilirubin, GOT, GPT (Example 7). The conditions noted are these: 13th week after treatment. Format: in vivo. Also on record: dose or concentration left out as unconfirmed.
Protocol: The luminescence and fluorescence-labelled cells were implanted into pancreas of experimental mice (40 NOD-SCID experimental mice purchased from BioLASCO Taiwan Co., Ltd) with a cell number of 5×10^5 by surgery. 10 days after the cell implantation to the pancreas of the animals, the baseline data was measured by noninvasive in vivo imaging system (IVIS). After the baseline IVIS data were obtained, all the experimental mice were randomly and evenly assigned into groups [the value of mean±3 s.d. of measured IVIS data was calculated, and the animals having an IVIS data within the standard range were assigned into control group (physiological saline was used), the group of the composition of the present invention (24 mg/kg the composition obtained for preparation example 1 was administrated daily), gemcitabine group (100 mg/kg gemcitabine was administered by intravenous injection twice per week continuously for three weeks and discontinuing gemcitabine on the fourth week. These four weeks were named as gemcitabine cycle. […] The survival period of each mouse during the experiment was recorded. […]
Data set [2] is described as follows: Jaundice observation and blood tests T-bilirubin, GOT/AST, GPT/ALT (Example 6). Format: in vivo, NOD-SCID mice.
Protocol: The luminescence and fluorescence-labelled cells were implanted into pancreas of experimental mice (50 NOD-SCID experimental mice purchased from BioLASCO Taiwan Co., Ltd) with a cell number of 5×10^5 by surgery. 10 days after the cell implantation to the pancreas of the animals, the baseline data was measured by noninvasive in vivo imaging system (IVIS). After the baseline IVIS data were obtained, all the experimental mice were randomly and evenly assigned into groups [the value of mean±3 s.d. of measured IVIS data was calculated, and the animals having an IVIS data within the standard range were assigned into control group (physiological saline was used), the group of the composition of the present invention obtained from preparation example (24 mg/kg the composition obtained for preparation example 1 was administrated directly into the stomachs of the mice through feeding tubes once per day), gemcitabine group (100 mg/kg gemcitabine was administered by intravenous injection twice per week), and combination group (24 mg/kg the composition of the present invention was administered daily and 100 mg/kg gemcitabine was administered twice per week), followed by the administration. […] The blood tests for total bilirubin (T-bilirubin), glutamate oxaloacetate transaminase/aspartate aminotransferase (GOT/AST), and glutamate pyruvate transaminase/alanine transaminase (GPT/ALT) of all experimental animals on the 9th week were conducted and the mice were observed whether the jaundice occurred or not by the naked eyes. The jaundice signs of mice which could be observed by naked eyes included: emaciation, swollen gall, yellow dark skin, and abnormal yellow limbs and tail.
The test system of data set [3] is orthotopic xenograft pancreatic cancer (PANC-1). Put plainly: Therapeutic effect (II) with gemcitabine cycles: tumor growth (IVIS) and survival (Example 7). The following applies: for inhibition of the tumor growth of the orthotopic xenograft pancreatic cancer compared to control: composition 24 mg/kg daily, gemcitabine 100 mg/kg in gemcitabine cycles. In kind it is in vivo, NOD-SCID mice. How it is done:
The human pancreatic adenocarcinoma cell line PANC-1 obtained from preparation example 2 was cloned and labelled with luminescence and fluorescence vector. The luminescence and fluorescence-labelled cells were implanted into pancreas of experimental mice (40 NOD-SCID experimental mice purchased from BioLASCO Taiwan Co., Ltd) with a cell number of 5×10^5 by surgery. 10 days after the cell implantation to the pancreas of the animals, the baseline data was measured by noninvasive in vivo imaging system (IVIS). After the baseline IVIS data were obtained, all the experimental mice were randomly and evenly assigned into groups [the value of mean±3 s.d. of measured IVIS data was calculated, and the animals having an IVIS data within the standard range were assigned into control group (physiological saline was used), the group of the composition of the present invention (24 mg/kg the composition obtained for preparation example 1 was administrated daily), gemcitabine group (100 mg/kg gemcitabine was administered by intravenous injection twice per week continuously for three weeks and discontinuing gemcitabine on the fourth week. These four weeks were named as gemcitabine cycle. There were three gemcitabine cycles in the present example.), and the combination group (100 mg/kg gemcitabine was administered by intravenous injection twice per week continuously for three weeks, and discontinuing gemcitabine on the fourth week, and the 24 mg/kg composition of the present invention obtained from the preparation example 1 were administered daily). […] The time points of IVIS data measurement of this example were: Baseline 10 Day (Baseline 10D), the 17th day (7 days after treatment), the 24th day (14 days after treatment), the 31st day (21 days after treatment), the 38th day (28 days after treatment), the 45th day (35 days after treatment), and the 59th day (49 days after treatment) of experiment. The blood of the experimental mice was collected and the T-bilirubin, GOT, and GPT in blood were examined to monitor the reason causing the jaundice on the fixed time points [Baseline 10 Day (Baseline 10D), the 4th week after treatment, the 8th week after treatment, the 10th week after treatment, and the 12th week after treatment,]. Whether the jaundice occurred or not was also observed by naked eyes. The jaundice signs of mice which could be observed by naked eyes included: emaciation, swollen gall, yellow dark skin, and abnormal yellow limbs and tail. The survival period of each mouse during the experiment was recorded.

Data set [4] shares this test system. Put plainly: Therapeutic effect (I) with gemcitabine: tumor growth (IVIS) and survival (Example 6). In kind it is in vivo, NOD-SCID mice. How it is done: The human pancreatic adenocarcinoma cell line PANC-1 obtained from preparation example 2 was cloned and labelled with luminescence and fluorescence vector. The luminescence and fluorescence-labelled cells were implanted into pancreas of experimental mice (50 NOD-SCID experimental mice purchased from BioLASCO Taiwan Co., Ltd) with a cell number of 5×10^5 by surgery. 10 days after the cell implantation to the pancreas of the animals, the baseline data was measured by noninvasive in vivo imaging system (IVIS). After the baseline IVIS data were obtained, all the experimental mice were randomly and evenly assigned into groups [the value of mean±3 s.d. of measured IVIS data was calculated, and the animals having an IVIS data within the standard range were assigned into control group (physiological saline was used), the group of the composition of the present invention obtained from preparation example (24 mg/kg the composition obtained for preparation example 1 was administrated directly into the stomachs of the mice through feeding tubes once per day), gemcitabine group (100 mg/kg gemcitabine was administered by intravenous injection twice per week), and combination group (24 mg/kg the composition of the present invention was administered daily and 100 mg/kg gemcitabine was administered twice per week), followed by the administration. The dosage and dosage regimen of the composition of the present invention were decided based on the results of example 4 that there were no significant differences between the high-dose group and the low-dose group, so the dosage of 24 mg/kg was chosen for this experiment. The dosage and the dosage regimen of first-line drug for the pancreatic cancer were decided in accordance with two journal articles: Cook, Natalie, et al. “Gamma secretase inhibition promotes hypoxic necrosis in mouse pancreatic ductal adenocarcinoma.” Journal of Experimental Medicine 209.3 (2012): 437-444. and Olive, Kenneth P., et al. “Inhibition of Hedgehog signaling enhances delivery of chemotherapy in a mouse model of pancreatic cancer.” Science (2009), so that the gemcitabine was administered at the dosage of 100 mg/kg twice per week for the experiment. The time points of IVIS data measurement were: Baseline 10 Day (Baseline 10D), the 17th day (the 7th day after administration), the 24th day (14 days after treatment), the 31st day (21 days after treatment), and the 38th day (28 days after treatment) of the experiment. […] The survival period of each mouse during the experiment was recorded.

The structures appear in SMILES notation. Where “and” joins values, the source holds several entries; their conditions need not be identical. Equal values may be shown once.

In the case of `Nc1ccn([C@@H]2O[C@H](CO)[C@@H](O)C2(F)F)c(=O)n1` [gemcitabine], the “number of mice with T-bilirubin higher than the standard” value in data set [1] was “one”. Further, the jaundice result in data set [2] (9th week after treatment, gemcitabine continuously twice per week) is recorded as “jaundice was found”. In data set [2] (9 weeks after treatment, versus groups not treated with gemcitabine, FIG. 13A), the “T-bilirubin in the blood” value is reported as “significantly higher”. The “GOT in the blood” value in data set [2] (9 weeks after treatment, versus groups not treated with gemcitabine, FIG. 13B) is on record as “significantly higher”. Moreover, the “GPT in the blood” value in data set [2] (9 weeks after treatment, versus groups not treated with gemcitabine, FIG. 13C) is on record as “significantly higher”. Further, the “inhibition of the tumor growth of the orthotopic xenograft pancreatic cancer compared to control” value in data set [3] (28th day after treatment) and in data set [3] (49th day after treatment) was 50%-60% in each case. Also, in data set [3] (Example 7, control group 89.4), the Average survival period was found to be 114.7 days. Also, the “Survival period of the experimental mice” value in data set [3] (individual mice, 7 per group, Example 7) is 109 Days (2×) and 113 Days and 119 Days and 140 Days and 105 Days and 108 Days. Further, the “effect of inhibiting the tumor growth of the pancreatic cancer compared to control” value in data set [4] (28 days after treatment, composition 24 mg/kg daily, gemcitabine 100 mg/kg i.v. twice per week) is on record as “around 50%”. The “day of the experiment on which the first dead mouse was found” value in data set [4] (Example 6, control 60th day) came to 77 days. In addition, in data set [4] (Example 6, control 91st day), the “day of the experiment on which the last dead mouse was found” value came out at 100 days. The “average survival period of the whole group” value in data set [4] (Example 6, control 80.1 days) is 89.4 days.

(Values after patent US12194015B2, “Composition comprising ferrous amino acid particles and method for treating or ameliorating pancreas-related disease using the same” (priority 2018, dated 2025).)
